These results are taken from patent publication US9725449B2, “Tricyclic compounds as anticancer agents” (BRISTOL-MYERS SQUIBB COMPANY, priority 2015, dated 2017).

As a reminder, the IC50 is the concentration needed to halve the response being measured.

Molecules are shown by their SMILES.

The test addresses BRD4 (Homo sapiens, UniProt O60885). Description: Time resolved fluorescence resonance energy transfer (TR-FRET) binding assay, bromodomain BRD4. The note with it: one of the FRET assays described; read-out: FRET BRD4 IC50. Background: In TR-FRET formats the signal depends on donor and acceptor labels being close together.
`Cc1noc(C)c1-c1cnc2c3cnc(C(C)(C)O)cc3n([C@H](c3ccc(F)cc3)C3CCOCC3)c2c1` [Example 331, 2-[5-(Dimethyl-1,2-oxazol-4-yl)-8-[(S)-(4-fluorophenyl)(oxan-4-yl)methyl]-3,8,12-triazatricyclo[7.4.0.0^2,^7]trideca-1(9),2(7),3,5,10,12-hexaen-11-yl]propan-2-ol]: the IC50 is < 10 nM.
For the compound `COc1ncc(S(C)(=O)=O)c2c1c1ncc(-c3c(C)noc3C)cc1n2C(c1ccccc1)C1CCC(F)(F)CC1` (single isomer, unassigned) [Example 88, 8-[(4,4-Difluorocyclohexyl)(phenyl)methyl]-5-(dimethyl-1,2-oxazol-4-yl)-10-methanesulfonyl-13-methoxy-3,8,12-triazatricyclo[7.4.0.0^2,^7]trideca-1(13),2(7),3,5,9,11-hexaene], the IC50 is < 10 nM.
As to `Cc1nnn(C)c1-c1cnc2c3c(S(C)(=O)=O)ncc(Cl)c3n([C@H](c3ccccc3)C3CCOCC3)c2c1` [Example 42, 10-Chloro-5-(dimethyl-1H-1,2,3-triazol-5-yl)-13-methanesulfonyl-8-[(S)-oxan-4-yl(phenyl)methyl]-3,8,12-triazatricyclo[7.4.0.0^2,^7]trideca-1(13),2(7),3,5,9,11-hexaene], the half-inhibitory concentration (IC50) is < 10 nM.
Turning to `COc1ncc(Cl)c2c1c1ncc(-c3c(C)nnn3C)cc1n2[C@H](c1ccccc1)C1CCOCC1` [Example 40, 10-Chloro-5-(dimethyl-1H-1,2,3-triazol-5-yl)-13-methoxy-8-[(S)-oxan-4-yl(phenyl)methyl]-3,8,12-triazatricyclo[7.4.0.0^2,^7]trideca-1(13),2(7),3,5,9,11-hexaene], the half-inhibitory concentration (IC50) is < 1 nM.
For the compound `Cc1nnn(C)c1-c1cnc2c3cnc(C(C)(C)O)cc3n([C@H](c3ccc(F)cc3)C3CCOCC3)c2c1` [Example 336], the 50% inhibitory concentration (IC50) was < 10 nM.
For `Cc1nnn(C)c1-c1cnc2c3ccc(-c4cnn(C(C)C)c4)nc3n([C@H](c3ccccc3)C3CCOCC3)c2c1` [Example 149, 5-(Dimethyl-1H-1,2,3-triazol-5-yl)-8-[(S)-oxan-4-yl(phenyl)methyl]-11-[1-(propan-2-yl)-1H-pyrazol-4-yl]-3,8,10-triazatricyclo[7.4.0.0^2,^7]trideca-1(13),2(7),3,5,9,11-hexaene], the IC50 was < 10 nM.
With `[2H]C([2H])([2H])c1nnn(C)c1-c1cnc2c3c(OC)ncc(S(C)(=O)=O)c3n(C(c3ncccc3F)C3CCOCC3)c2c1` (stereo not drawn) [Example 64, 8-[(3-Fluoropyridin-2-yl)(oxan-4-yl)methyl]-10-methanesulfonyl-13-methoxy-5-[4-(^2H3)methyl-1-methyl-1H-1,2,3-triazol-5-yl]-3,8,12-triazatricyclo[7.4.0.0^2,^7]trideca-1(13),2(7),3,5,9,11-hexaene], the 50% inhibitory concentration (IC50) is < 1 nM.
In the case of `Cc1nnn(C)c1-c1cnc2c3c(NS(=O)(=O)C4CC4)ncc(S(C)(=O)=O)c3n([C@H](c3ccccc3)C3CCOCC3)c2c1` [Example 97, N-[5-(Dimethyl-1H-1,2,3-triazol-5-yl)-10-methanesulfonyl-8-[(S)-oxan-4-yl(phenyl)methyl]-3,8,12-triazatricyclo[7.4.0.0^2,^7]trideca-1(13),2(7),3,5,9,11-hexaen-13-yl]cyclopropanesulfonamide], the IC50 is < 1 nM.
`[2H]C([2H])([2H])c1nnn(C)c1-c1cnc2c3c(OCC)ncc(S(C)(=O)=O)c3n(C(c3ncccc3F)C3CCC(F)(F)CC3)c2c1` (stereo not drawn) [Example 75, 8-[(4,4-Difluorocyclohexyl)(3-fluoropyridin-2-yl)methyl]-13-ethoxy-10-methanesulfonyl-5-[4-(^2H3)methyl-1-methyl-1H-1,2,3-triazol-5-yl]-3,8,12-triazatricyclo[7.4.0.0^2,^7]trideca-1(13),2(7),3,5,9,11-hexaene]: the half-maximal inhibitory concentration (IC50) was < 1500 nM.
Consider `Cc1nnn(C)c1-c1cnc2c3cncc(S(C)(=O)=O)c3n(C(c3ccccc3)C3CCC(F)(F)CC3)c2c1` (stereo not drawn) [Example 289, 8-[(4,4-Difluorocyclohexyl)(phenyl)methyl]-5-(dimethyl-1H-1,2,3-triazol-5-yl)-10-methanesulfonyl-3,8,12-triazatricyclo[7.4.0.0^2,^7]trideca-1(13),2(7),3,5,9,11-hexaene], for which the IC50 was < 1500 nM.
Take `[2H]C([2H])([2H])c1nnn(C)c1-c1cnc2c3ccc(C(C)(O)C4CC4)nc3n([C@H](c3ccccc3F)C3CCOCC3)c2c1` (stereo partly drawn) [Example 243, 1-Cyclopropyl-1-{8-[(S)-(2-fluorophenyl)(oxan-4-yl)methyl]-5-[4-(^2H3)methyl-1-methyl-1H-1,2,3-triazol-5-yl]-3,8,10-triazatricyclo[7.4.0.0^2,^7]trideca-1(13),2(7),3,5,9,11-hexaen-11-yl}ethan-1-ol]: the IC50 was < 10 nM.
Under `[2H]C([2H])([2H])c1nnn(C)c1-c1cnc2c3c(OC)nc(S(C)(=O)=O)cc3n([C@H](c3ccccc3)C3CCOCC3)c2c1` [Example 342, 11-Methanesulfonyl-13-methoxy-5-[4-(^2H3)methyl-1-methyl-1H-1,2,3-triazol-5-yl]-8-[(S)-oxan-4-yl(phenyl)methyl]-3,8,12-triazatricyclo[7.4.0.0^2,^7]trideca-1(13),2(7),3,5,9,11-hexaene] stands < 10 nM.
As to `C=C(OCC)c1cc2c(cn1)c1ncc(-c3c(C)noc3C)cc1n2[C@H](c1ccc(F)cc1)C1CCOCC1` [Example 329, 5-(Dimethyl-1,2-oxazol-4-yl)-11-(1-ethoxyethenyl)-8-[(S)-(4-fluorophenyl)(oxan-4-yl)methyl]-3,8,12-triazatricyclo[7.4.0.0^2,^7]trideca-1(9),2(7),3,5,10,12-hexaene], the IC50 was < 10 nM.
Turning to `[2H]C([2H])([2H])c1nnn(C)c1-c1cnc2c3ccc(-c4c(C([2H])([2H])[2H])nnn4C)nc3n(C(c3ncccc3F)C3CCOCC3)c2c1` (stereo not drawn) [Example 247, 8-[(3-Fluoropyridin-2-yl)(oxan-4-yl)methyl]-5,11-bis[4-(^2H3)methyl-1-methyl-1H-1,2,3-triazol-5-yl]-3,8,10-triazatricyclo[7.4.0.0^2,^7]trideca-1(13),2(7),3,5,9,11-hexaene], the IC50 is < 1 nM.
With `COc1nccc2c3ncc(-c4c(C)nnn4C)cc3n(C(c3ccccc3F)C3CCOCC3)c12` (single isomer, unassigned) [Example 19, 5-(Dimethyl-1H-1,2,3-triazol-5-yl)-8-[(2-fluorophenyl)(oxan-4-yl)methyl]-10-methoxy-3,8,11-triazatricyclo[7.4.0.0^2,^7]trideca-1(13),2(7),3,5,9,11-hexaene], the IC50 was < 10 nM.
On to `[2H]C([2H])([2H])c1nnn(C)c1-c1cnc2c3ccc(S(C)(=O)=O)nc3n([C@H](c3ccccc3F)C3CCOCC3)c2c1` [Example 235, 8-[(S)-(2-Fluorophenyl)(oxan-4-yl)methyl]-11-methanesulfonyl-5-[4-(^2H3)methyl-1-methyl-1H-1,2,3-triazol-5-yl]-3,8,10-triazatricyclo[7.4.0.0^2,^7]trideca-1(13),2(7),3,5,9,11-hexaene], for which the IC50 was < 10 nM.
In the case of `Cc1nnn(C)c1-c1cnc2c3ccnc(OCCN(C)C)c3n([C@H](c3ccccc3)C3CCOCC3)c2c1` [Example 10, (2-{[5-(Dimethyl-1H-1,2,3-triazol-5-yl)-8-[(S)-oxan-4-yl(phenyl)methyl]-3,8,11-triazatricyclo[7.4.0.0^2,^7]trideca-1(13),2(7),3,5,9,11-hexaen-10-yl]oxy}ethyl)dimethylamine], the IC50 was < 10 nM.
Under `Cc1nnn(C)c1-c1cnc2c3cnc(C(C)(C)O)cc3n([C@H](c3ncccc3F)C3CCOCC3)c2c1` [Example 339] stands < 10 nM; under `Cc1nnn(C)c1-c1cnc2c3c(O)ncc(S(C)(=O)=O)c3n([C@H](c3ccccc3)C3CCOCC3)c2c1` [Example 93, 5-(Dimethyl-1H-1,2,3-triazol-5-yl)-10-methanesulfonyl-8-[(S)-oxan-4-yl(phenyl)methyl]-3,8,12-triazatricyclo[7.4.0.0^2,^7]trideca-1(13),2(7),3,5,9,11-hexaen-13-ol], < 10 nM.
Consider `Cc1nnn(C)c1-c1cnc2c3ccc([S+](C)[O-])nc3n([C@H](c3ccccc3)C3CCOCC3)c2c1` (stereo partly drawn) [Example 200, 5-(Dimethyl-1H-1,2,3-triazol-5-yl)-11-methanesulfinyl-8-[(S)-oxan-4-yl(phenyl)methyl]-3,8,10-triazatricyclo[7.4.0.0^2,^7]trideca-1(9),2(7),3,5,10,12-hexaene], for which the IC50 is < 10 nM.
Regarding `[2H]C([2H])([2H])c1nnn(C)c1-c1cnc2c3c(OCC4CC4)ncc(S(C)(=O)=O)c3n([C@H](c3ccccc3)C3CCOCC3)c2c1` [Example 59, 13-(Cyclopropylmethoxy)-10-methanesulfonyl-5-[4-(^2H3)methyl-1-methyl-1H-1,2,3-triazol-5-yl]-8-[(S)-oxan-4-yl(phenyl)methyl]-3,8,12-triazatricyclo[7.4.0.0^2,^7]trideca-1(13),2(7),3,5,9,11-hexaene], the IC50 was < 1 nM.
As to `Cc1nnn(C)c1-c1cnc2c3ccc(N4CCN(S(=O)(=O)N(C)C)CC4)nc3n([C@H](c3ccccc3F)C3CCOCC3)c2c1` [Example 269, 4-[5-(Dimethyl-1H-1,2,3-triazol-5-yl)-8-[(S)-(2-fluorophenyl)(oxan-4-yl)methyl]-3,8,10-triazatricyclo[7.4.0.0^2,^7]trideca-1(13),2(7),3,5,9,11-hexaen-11-yl]-N,N-dimethylpiperazine-1-sulfonamide], the IC50 was < 1 nM.
The result for `[2H]C([2H])([2H])c1nnn(C)c1-c1cnc2c3c(Cl)cnc(Cl)c3n([C@H](c3ccccc3)C3CCOCC3)c2c1` [Example 296, 10,13-Dichloro-5-[4-(^2H3)methyl-1-methyl-1H-1,2,3-triazol-5-yl]-8-[(S)-oxan-4-yl(phenyl)methyl]-3,8,11-triazatricyclo[7.4.0.0^2,^7]trideca-1(9),2(7),3,5,10,12-hexaene] reads < 1 nM; that for `[2H]C([2H])([2H])c1nnn(C)c1-c1cnc2c3c(NCC(F)(F)F)nccc3n([C@H](c3ccccc3)C3CCOCC3)c2c1` [Example 134, 5-[4-(^2H3)Methyl-1-methyl-1H-1,2,3-triazol-5-yl]-8-[(S)-oxan-4-yl(phenyl)methyl]-N-(2,2,2-trifluoroethyl)-3,8,12-triazatricyclo[7.4.0.0^2,^7]trideca-1(13),2(7),3,5,9,11-hexaen-13-amine], < 1 nM.
